Test results from article PMC12652692, “Synthesis and In Vitro Anticancer Evaluation of Novel Phosphonium Derivatives of Chrysin” (International Journal of Molecular Sciences, 2025).

Tests used:
Assay in all cases: NCI60 five-dose screen
Format in all cases: cell-based
[1] = test system: SW-620; details: Homo sapiens; SW-620, Colon Cancer
Procedure: (§1) Since all new conjugates (3a–h) had notable antiproliferative activities on several tumor cell lines in the course of the one-dose screening, they were subjected to a five-dose test. […] J. Mol. Sci. 2025, 26, 11063 10 of 10 S.3. NCI60 Screening A detailed description of the NCI screening procedures can also be found on the website of NCI [39], and in our previous work. S.3.1. One-Dose Screen All candidates were examined at first at a single high dose (10 μM) in the full NCI60 cell panel. The value reported for the one-dose test is growth relative to the no-drug control and relative to the time zero number of cells. This made possible the disclosure of both growth inhibition (numbers between 0 and 100) and lethality (numbers less than 0). For example, a value of 100 means no growth inhibition. A value of 20 would mean 80% growth inhibition. A value of 0 means no net growth over the course of the analysis. A value of −20 would mean 20% lethality. A value of −100 means all cells are dead. S.3.2. […] The human tumor cell lines of the cancer screening panel were grown in RPMI 1640 medium containing 5% fetal bovine serum and 2 mM l-glutamine. Characteristically, cells were injected in 96-well microtiter plates in 0.1 mL at plating densities ranging from 5000 to 40,000 cells/well, depending on the doubling time of individual cell lines. After cell inoculation, the microtiter plates were incubated at 37 °C, 5% carbon dioxide, 95% air, and 100% relative humidity for 24 hours before the addition of tested compounds. After 24 hours, 2 plates of each cell line were fixed in situ with Cl3COOH (TCA), to represent a measurement of the cell population for each cell line at the time of drug addition (tz). Tested compounds were solubilized in DMSO at 400-fold the desired final maximum test concentration and stored frozen before application. In the course of the drug addition, an aliquot of frozen concentrate was thawed and diluted to twice the desired final maximum test concentration with a complete medium containing 50 μg mL−1 gentamicin. Additional four, 10-fold or ½ log serial dilutions were produced to furnish a total of five drug concentrations plus control. Aliquots of 0.1 mL of these different drug dilutions were added to the appropriate microtiter wells already containing 0.1 mL of medium, resulting in the required final drug concentrations. Following drug addition, the plates were incubated at 37 °C, 5% carbon dioxide, 95% air, and 100% relative humidity for an additional 48 hours. For adherent cells, the test was finished by the addition of cold Cl3COOH. Cells were fixed in situ by the addition of 50 μL of cold 50% (w/v) Cl3COOH, and incubated at 4 °C for 1 hour. The supernatant was discarded, and the plates were washed with H2O (5×) and dried in air. Sulforhodamine B (SRB) solution (0.1 mL) at 0.4% (w/v) in 1% CH3COOH was added to each well, and plates were incubated at RT for 10 min. After staining, the unbound dye was removed by washing five times with 1% CH3COOH, and the plates were dried in the air. The bound stain is afterward solubilized with a 10 mM trizma base, and the absorbance is read on an automated plate reader at λ = 515 nm. Utilizing the seven absorbance measurements [time zero (tz), control growth (c), and test growth in the presence of the drug at the five concentration levels (ti)], the percentage growth was determined at each of the drug concentration levels. Growth inhibition (%) was calculated as: [(ti − tz)/(c − tz)] × 100, for concentrations where ti ≥ tz (1) [(ti − tz)/(tz)] × 100, for concentrations where ti < tz. (2) Three dose‒response parameters were calculated as follows. GI50 (growth inhibition of 50%) was determined from Equation (3), which is the drug concentration resulting in a 50% reduction in the net protein increase (as measured by SRB staining) in control cells in the course of the drug incubation. [(ti − tz)/(c − tz)] × 100 = 50 (3)

[2] = test system: NCI/ADR-RES; details: Homo sapiens, Ovarian Cancer
Procedure: as §1

[3] = test system: SR; details: Homo sapiens, Leukemia
Procedure: as §1

[4] = test system: NCI-H23; details: Homo sapiens; NCI-H23, Non-small-Cell Lung Cancer
Procedure: as §1

[5] = test system: MDA-MB-435; details: Homo sapiens; MDA-MB-435, Melanoma
Procedure: as §1

[6] = test system: 786-0; details: Homo sapiens; 786-0, Renal Cancer
Procedure: as §1

[7] = test system: NCI-H460; details: Homo sapiens; NCI-H460, Non-small-Cell Lung Cancer
Procedure: as §1

[8] = test system: OVCAR-5; details: Homo sapiens; OVCAR-5, Ovarian Cancer
Procedure: as §1

[9] = test system: HL-60(TB); details: Homo sapiens, Leukemia
Procedure: as §1

[10] = test system: MOLT-4; details: Homo sapiens; MOLT-4, Leukemia
Procedure: as §1

[11] = test system: CCRF-CEM; details: Homo sapiens, Leukemia
Procedure: as §1

[12] = test system: SK-MEL-2; details: Homo sapiens; SK-MEL-2, Melanoma
Procedure: as §1

[13] = test system: HS 578T; details: Homo sapiens, Breast Cancer
Procedure: as §1

[14] = test system: SN12C; details: Homo sapiens, Renal Cancer
Procedure: as §1

[15] = test system: BT-549; details: Homo sapiens; BT-549, Breast Cancer
Procedure: as §1

[16] = test system: U251; details: Homo sapiens, U-251; U251, CNS Cancer
Procedure: as §1

[17] = test system: TK-10; details: Homo sapiens; TK-10, Renal Cancer
Procedure: as §1

[18] = test system: UACC-62; details: Homo sapiens; UACC-62, Melanoma
Procedure: as §1

[19] = test system: A549/ATCC; details: Homo sapiens, Non-small-Cell Lung Cancer
Procedure: as §1

[20] = test system: SNB-75; details: Homo sapiens; SNB-75, CNS Cancer
Procedure: as §1

[21] = test system: LOX IMVI; details: Homo sapiens, Melanoma
Procedure: as §1

[22] = test system: ACHN; details: Homo sapiens, Renal Cancer
Procedure: as §1

[23] = test system: UO-31; details: Homo sapiens; UO-31, Renal Cancer
Procedure: as §1

SMILES	GI50 [1] [nM]	GI50 [2] [nM]	GI50 [3] [nM]	GI50 [4] [nM]	GI50 [5] [nM]	GI50 [6] [nM]	GI50 [7] [nM]	GI50 [8] [nM]	GI50 [9] [nM]	GI50 [10] [nM]	GI50 [11] [nM]	GI50 [12] [nM]	GI50 [13] [nM]	GI50 [14] [nM]	GI50 [15] [nM]	GI50 [16] [nM]	GI50 [17] [nM]	GI50 [18] [nM]	GI50 [19] [nM]	GI50 [20] [nM]	also measured
O=c1cc(-c2ccccc2)oc2cc(OCCCC[P+](c3ccccc3)(c3ccccc3)c3ccccc3)cc(O)c12 [3a]	343	3290	289	302	299	553	321	1150	167	338	335	238	306	330	257	315	464	292	908	165	GI50 [21]: 326 nM; GI50 [22]: 633 nM; GI50 [23]: 1240 nM
Cc1ccc([P+](CCCCOc2cc(O)c3c(=O)cc(-c4ccccc4)oc3c2)(c2ccc(C)cc2)c2ccc(C)cc2)cc1 [3b]	354	1180	261	241	238	373	357	684	140	322	324	246	366	389	344	279	313	344	393	219	GI50 [21]: 287 nM; GI50 [22]: 265 nM; GI50 [23]: 177 nM
COc1ccc([P+](CCCCOc2cc(O)c3c(=O)cc(-c4ccccc4)oc3c2)(c2ccc(OC)cc2)c2ccc(OC)cc2)cc1 [3c]	351	2600	300	423	319	1210	371	852	288	453	367	301	332	317	349	276	1090	317	600	344	GI50 [21]: 355 nM; GI50 [22]: 1280 nM; GI50 [23]: 1480 nM
O=c1cc(-c2ccccc2)oc2cc(OCCCC[P+](c3ccc(F)cc3)(c3ccc(F)cc3)c3ccc(F)cc3)cc(O)c12 [3d]	1460	15900	1990	1650	1550	1830	2130	3000	1340	1900	2310	1730	1980	2490	1610	1670	1740	2050	3210	1670	GI50 [21]: 1690 nM; GI50 [22]: 3230 nM; GI50 [23]: 1850 nM
O=c1cc(-c2ccccc2)oc2cc(OCCCC[P+](C3CCCCC3)(C3CCCCC3)C3CCCCC3)cc(O)c12 [3e]	649	8440	260	1340	341	1570	957	1300	184	1010	477	1320	838	509	709	287	1430	368	1330	529	GI50 [21]: 938 nM; GI50 [22]: 1520 nM; GI50 [23]: 1610 nM
COc1c(C)cc([P+](CCCCOc2cc(O)c3c(=O)cc(-c4ccccc4)oc3c2)(c2cc(C)c(OC)c(C)c2)c2cc(C)c(OC)c(C)c2)cc1C [3f]	323	1580	162	283	296	338	304	335	78	238	103	292	361	313	280	67	427	312	314	213	GI50 [21]: 284 nM; GI50 [22]: 371 nM; GI50 [23]: 277 nM
Cc1ccccc1[P+](CCCCOc1cc(O)c2c(=O)cc(-c3ccccc3)oc2c1)(c1ccccc1C)c1ccccc1C [3g]	274	2140	206	243	320	291	243	1720	180	235	242	194	232	230	291	225	414	319	417	274	GI50 [21]: 170 nM; GI50 [22]: 569 nM; GI50 [23]: 1770 nM
O=c1cc(-c2ccccc2)oc2cc(OCCCC[P+](c3ccccc3)(c3ccccc3)c3ccccn3)cc(O)c12 [3h]	901	7550	214	776	376	1570	801	1440	130	424	334	758	1130	510	293	335	1690	549	1130	572	GI50 [21]: 694 nM; GI50 [22]: 1640 nM; GI50 [23]: 1540 nM
